We go through eight compounds from US20190290710A1, “USE OF GLUC[…] TO ENHANCE RECOMBINANT ADENO-[…] YIELD” (priority 2016, published 2019).

Like-named read-outs stand apart in the source and are kept apart here.

Data set [1] concerns HeLa host cell line. The format is cell-based. The method, then:
A number of cell culture additives including metals, trace supplements, salts, and others, were tested for their ability to increase production of recombinant adeno-associated virus vector (rAAV) by a HeLa host cell line.

The subject of data set [2] is HeLa host cell line. As to the kind of experiment: rAAV yield by qPCR, HeLa host cell line in shaker flasks, glucocorticoid analogs. In kind it is cell-based. Particulars: shaker flask, 0.1 and 1 μM, 4 days, FIG. 2. The method, then: FIG. 2 is a bar graph depicting the effect of glucocorticoid analogs on rAAV production from a HeLa producer cell line cultured in a shaker flask. Hydrocortisone (hydr), predinosolone (pred) and dexamethasone (dex) were added at the indicated concentrations and after 4 days rAAV yield (GC/ml) was measured by qPCR. Each value represents the mean of two independent experiments.
DNase-resistant particles (DRP) can be quantified by real-time quantitative polymerase chain reaction (qPCR) (DRP-qPCR) in a thermocycler (for example, an iCycler iQ 96-well block format thermocycler (Bio-Rad, Hercules, Calif.)). Samples containing rAAV particles are incubated in the presence of DNase I (100 U/ml; Promega, Madison, Wis.) at 37° C. for 60 min, followed by proteinase K (Invitrogen, Carlsbad, Calif.) digestion (10 U/ml) at 50° C. for 60 min, and then denatured at 95° C. for 30 min. The primer-probe set used should be specific to a non-native portion of the rAAV vector genome, for example, the poly(A) sequence of the protein of interest. […]
Stock solutions of dexamethasone (dex), prednisolone (pred), and hydrocortisone (hydr) dissolved in DMSO were added to the cell culture to final concentrations of 0.1 and 1 μM. After 4 days, rAAV yield was determined by measuring both the secreted (extracellular) and total rAAV in the cell culture harvest by qPCR.

`[Ca+2]` [calcium]: the media precipitation result in the data set with HeLa host cell line [1] (calcium concentrations higher than 0.19 g/L) is “causing media precipitation”. Also, the “impact on rAAV yield” value in the data set with HeLa host cell line [1] (supplementation with 0.19 g/L of calcium) was “minimal impact”.
For the compound `[Cu]` [copper], in the data set with HeLa host cell line [1] (copper concentration increased from 0.1 μM to 10 μM), the “impact on rAAV yield” value is recorded as “No or minimal impact”.
For `C[C@]12CCC(=O)C=C1CC[C@@H]1[C@@H]2[C@@H](O)C[C@@]2(C)[C@H]1CC[C@]2(O)C(=O)CO` [hydrocortisone], in the data set on HeLa host cell line [2], the “rAAV yield (extracellular and total)” value is “increased rAAV yield”.
For `[Fe]` [iron], in the data set with HeLa host cell line [1] (iron concentration increased from 0.1 mg/L to 10 mg/L), the “impact on rAAV yield” value is given as “No or minimal impact”.
In the case of `[Mg+2]` [magnesium], the “impact on rAAV yield” value in the data set with HeLa host cell line [1] (magnesium concentration increased from 1 mg/L to 30 mg/L) is listed as “slightly negative impact”.
As to `C[C@]12C=CC(=O)C=C1CC[C@@H]1[C@@H]2[C@@H](O)C[C@@]2(C)[C@H]1CC[C@]2(O)C(=O)CO` [prednisolone], the “rAAV yield (extracellular and total)” value in the data set on HeLa host cell line [2] is on record as “increased rAAV yield”.
For `NCCCCN` [putrescine], the “effect on rAAV yield” value in the data set on HeLa host cell line [1] was “negative effect”.
For the compound `NCCCNCCCCNCCCN` [spermine], the “effect on rAAV yield” value with HeLa host cell line [1] is reported as “negative effect”.
